The values below come from patent US5716528A, “Peroxide water treatment process” (Domtar Inc., priority 1995, dated 1998).

Experiment [1] is described as follows: Field trials: peroxide oxidation of wood preserving wastewater, then carbon adsorption. As for the experimental part: In field trials 900 liter samples of wood preserving wastewater of known Chemical Oxygen Demand (COD) was treated as follows:
This antifoam agent was added because foaming was expected in view of the large volume of waste water being treated.
An amount of Fe^2+ (as 0.1M or 1M ferrous sulphate heptahydrate) equivalent to 5-7% of the total H2 O2 by weight was added with fast agitation. The pH was kept at 3-3.8 at a temperature of 40°±5° C.
The reaction was judged complete when the colour of the reaction mixture turned light yellow similar to that of a ferric ions solution (3-3.5 hrs.)
The catalyst was separated by co-precipitation with alum or poly electrolytes.

Experiment [2] in a line: Effect of peroxide/penta weight ratios on the oxidation of pentachlorophenol. The settings on record: Fe2+/H2O2 3%, pH 3.5. The procedure:
a) Effect of peroxide/penta weight ratios on the oxidation of pentachlorophenol
Appropriate amounts of technical grade pentachlorophenol were dissolved in deionized water (the pH of which was kept at 8 to 9 with 5% NaOH solution) to yield solutions containing 19.0, 38.1, 66.6 and76.2 ppm pentachlorophenol.
100 ml of each of the above solutions was placed in each of four 100 ml beakers.
157.5 mg H2 O2 (≈0.42 ml of 35% solution) were added to each beaker to give peroxide/penta weight ratios of 82.7, 41.3, 27.6 and 20.7, respectively.
4.74 mg of Fe^2+ (≈0.85 ml of 0.1 molar solution of ferrous sulphate heptahydrate) were then added to give a constant Fe^2+ /H2 O2 weight ratio of 3% in each beaker.

Structures are written as SMILES. Where only a bound is given, the exact number is not on record here.

In the case of `Oc1c(Cl)c(Cl)c(Cl)c(Cl)c1Cl` [Pentachlorophenol, pentachlorophenol], in experiment [1] (field trial), the “removed after oxidation followed by carbon adsorption” value is on record as over 99.3%. Moreover, the “removed after oxidation only” value in experiment [1] (field trial) was 92.60-98.75%. Besides, the “destruction levels of contaminants by oxidation” value in experiment [1] (summary of process) is reported as about 99.9%. The PCP destruction came out at 96.2% in experiment [2] (PCP 19.0 ppm, H2O2/PCP ratio 82.7); 98.2% in experiment [2] (PCP 38.1 ppm, H2O2/PCP ratio 41.3); 98.9% in experiment [2] (PCP 66.6 ppm, H2O2/PCP ratio 27.6); 95.9% in experiment [2] (PCP 76.2 ppm, H2O2/PCP ratio 20.7).
